Values of other authors as cited in patent US7205335B2, “Preparation of cis-fused 3,3a,8,12b-tetrahydro-2H-dibenzo[3,4:6,7]cyclohepta[1,2-b]furan derivatives” (priority 2001, dated 2007).

Settings: dose of 300 mg/kg

Q: With `CNCC1CC2c3ccccc3Cc3ccccc3C2O1.O=C(O)C(=O)O` (racemic) [(±)-3,3a,8,12b-tetrahydro-N-methyl-2H-dibenzo[3,4:6,7]-cyclohepta-[1,2-b]furan-2-methanamine oxalic acid] as the molecule, how does the “activity as an antidepressant” value read?
A: Its value is “inactive”.
